Columns and labels:
[1] = system: intracellular ROS in SH-SY5Y cells; test: 6-OHDA-induced ROS accumulation (CM-H2DCFDA); assay type: cell-based, Human
Method: SH-SY5Y cells seeded at 96-well plates (1×10^4 cells/well) were incubated with 5 μM fluorescent probe CM-H2DCFDA at 37° C. for 20 min after treatment with SchiA or 6-OHDA. The fluorescence intensity was determined by multi-label counter at wavelengths of excitation at 493 nm and emission at 522 nm.
The generation of excess ROS by auto-oxidation of 6-OHDA, considered to be involved in 6-OHDA-induced cellular injury (Cohen and Heikkila 1974). Therefore, to examine whether SchiA prevented the production of ROS from 6-OHDA, the accumulation of ROS was measured by fluorescent probe CM-H2DCFDA in SH-SY5Y cells. The fluorescence intensity of CM-H2DCFDA was measured after SH-SY5Y cell were pretreated with different concentrations of SchiA for 12 h and then treated with or without 400 μM 6-OHDA for 4 h. The results of FIG. 3 are expressed as a percentage of that of the control group. ###P<0.005 versus control group; *p<0.05, **p<0.01 and *** p<0.005 versus 6-OHDA group.

zebrafish larvae = assay type: in vivo; details: 2.5-10 μM with 250 μM 6-OHDA, 4 days, 10 min session
Method: The wild type zebrafish was used for this study.
Zebrafish behaviour was analyzed using a digital video tracking system (Viewpoint ZebraLab system). The system consists of a digital video camera connected to a computer system running the analysis software ZebraLab Man Rev 3.6B.
Moreover, 6-OHDA treatment also markedly altered the swimming behavior of zebrafish. […] Values in FIG. 9 represent the mean±SEM of 12 fish larvae per group of 3-time independent experiments. ###P<0.005 versus control group; *p<0.05, **p<0.01 and *** p<0.005 versus 6-OHDA group. […] The total swimming distance in 10 min travelled by the zebrafish larvae was decreased after exposure to 6-OHDA.

caspase-3 = test: Caspase-3 activity assay (EnzChek kit); assay type: cell-based, Human; details: 60 μM 12 h, then 2 mM MPP+ 36 h
Method: Caspase-3 activity was detected using the EnzChek® Caspase-3 Assay Kit according to the manufacturer's protocol. In brief, the reaction mixture (total volume 100 μL) contained 50 μL of cell lysate and 50 μL of caspase-3 substrate (Z-DEVD-R110 substrate; the final concentration is […]) in assay buffer, and the assay was carried out in a 96-well plate. To account for non-specific hydrolysis of substrate, the samples were incubated at room temperature for approximately 30 minutes and measured the fluorescence (excitation/emission˜496/520 nm).
The inventors performed Western blot to measure the expression of active-form of caspase-3 and caspase-7 in SH-SY5Y cells. Cells were pretreated with 60 μM SchiA for 12 h and then treated with 2 mM MPP for another 36 h. Cells were lysed and examined by western blot. […] Caspase-3 activity was expressed as units per mg protein. ###p<0.005 versus control group; *p<0.05, **p<0.01 and *** p<0.005 versus MPP+ group.

[2] = SchiA pharmacokinetics study in plasma; assay type: in vivo, Sprague-Dawley rats; details: microemulsion 30 mg/kg
Method: Male Sprague-Dawley rats (SD rats) with body weight between 220 and 250 g and age between 6 and 7 weeks were supplied by Guangdong Medical Experiment Animal Center (Guangzhou, China). SchiA was prepared as microemulsion for i.v. and p.o. at 30 mg/kg. The concentration of SchiA microemulsion was 4.9 mg/ml. After administration of SchiA, blood samples were collected at 0.033, 0.167, 0.5, 1, 2, 4, 8, 12, 24 and 36 h, respectively. Plasma samples were obtained after centrifugation of the collected blood samples at 10,000 rpm for 5 min. Subsequently, in 100 μl plasma which was taken from the supernatant, 200 μl of 50% acetonitrile and 50% methanol were added. After vortexing for 20 s and centrifuging at 12,000 rpm for 10 min, the supernatant was collected and filtered through a 0.22 μm membrane, of which 20 μl was injected into the chromatographic system for analysis.
Quantitative analysis of SchiA was completed on an Agilent series 1260 HPLC apparatus (Agilent Technologies, Santa Clara, Calif., USA) equipped with a vacuum degasser, a quaternary pump, a manual sampler and an ultraviolet detector. RP Phenonenex C-18 column (250 mm×4.6 mm, 5 μm) was used to separate at 35° C. with a mobile phase of water and methanol (83:17, v/v). The flow rate was 1 ml/min. The monitoring wavelength of SchiA was 230 nm.
And then non-compartmental model of DAS 2.0 program was chosen to calculate the major pharmacokinetic parameters.

Question: For COc1cc2c(c(OC)c1OC)-c1c(cc3c(c1OC)OCO3)C[C@H](C)[C@](C)(O)[C@H]2OC(=O)c1ccccc1 [SchiA, Schisantherin A], which “6-OHDA-induced intracellular ROS level” value ([1]; 3, 6, 12, 25 and 50 μM 12 h, then 400 μM 6-OHDA 4 h) is on record?
Answer: Its value is “significantly reduced”.

Question: And the “intracellular ROS levels, compound alone” value ([1]; without 6-OHDA)?
Answer: The value was “no obvious effect”.

Question: And the “6-OHDA-induced reduction of total distance of movement” value (zebrafish larvae)?
Answer: The value was “inhibited 6-OHDA-induced reduction of total distance of movement by zebrafish in a dose dependent manner”.

Question: And the “MPP+-induced elevation of caspase-3 activity” value (caspase-3)?
Answer: Its value is “dramatically suppressed”.

Question: And the t1/2 ([2]; i.v.)?
Answer: Its t1/2 is 15.88 ± 1.82 h.

Question: What about the Tmax ([2]; rat plasma) of the same molecule?
Answer: Its Tmax is 1.33 ± 0.58 h.

Question: What about the t1/2 ([2]; p.o.) of the same molecule?
Answer: The t1/2 was 16.543 ± 6.95 h.

Source: patent US20150366839A1, “Schisantherin A for the treatment of neurodegenerative diseases” (priority 2014, published 2015)
